Laboratory results published in patent publication US8946446B2, “Pyrrolo sulfonamide compounds for modulation of orphan nuclear receptor RAR-related orphan receptor-γ (ROR-γ, NR1F3) activity and for the treatment of chronic inflammatory and autoimmune diseases” (Phenex Pharmaceuticals AG, priority 2011, dated 2015).
Where two headings read alike, the source gives them in different places.

Molecular target: T1, RORγ ligand binding domain (LBD) (Homo sapiens, UniProt P51449)
T1 construct: made in house; host or cells: E. coli BL-21 (BL3), vector pDEST15
T1 sequence (P51449 269-508 limits assumed): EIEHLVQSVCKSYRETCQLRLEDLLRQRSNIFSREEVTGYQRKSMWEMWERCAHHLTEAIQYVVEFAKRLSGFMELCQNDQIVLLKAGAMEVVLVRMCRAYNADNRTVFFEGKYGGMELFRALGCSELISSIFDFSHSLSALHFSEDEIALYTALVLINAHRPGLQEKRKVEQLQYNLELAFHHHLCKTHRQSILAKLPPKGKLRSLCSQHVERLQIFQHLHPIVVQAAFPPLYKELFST
Test: TR-FRET Activity Assay (ligand sensing, RORγ-LBD / coactivator peptide interaction)
Format: biochemical
Description: This method measures the ability of putative ligands to modulate the interaction between the purified bacterial expressed RORγ ligand binding domain (LBD) and synthetic N-terminally biotinylated peptides which are derived from nuclear receptor coactivator proteins such as but not limited to SRC1 (NcoA1), SRC2 (NcoA2, TIF2), SRC3 (NcoA3), PGC1α, PGC1β, CBP, GRIP1, TRAP220, RIP140.
The ligand-binding domain (LBD) of RORγ was expressed as fusion protein with GST in […] cells using the vector pDEST15. Cells were lysed by lysozyme-treatment and sonication, and the fusion proteins purified over glutathione sepharose (Pharmacia) according to the manufacturers instructions. For screening of compounds for their influence on the RORγ-peptide interaction, the LANCE technology (Perkin Elmer) was applied. This method relies on the binding dependent energy transfer from a donor to an acceptor fluorophor attached to the binding partner of interest. For ease of handling and reduction of background from compound fluorescence LANCE technology makes use of generic fluorophore labels and time resolved detection assays were done in a final volume of 25 μL in a 384 well plate, in a Tris-based buffer system (20 mM Tris-HCl pH6.8; 60 mM KCl, 1 mM DTT; 5 mM MgCl2; 35 ng/μL BSA), containing 20-60 ng/well recombinantly expressed RORγ-LBD fused to GST, 200-600 nM N-terminally biotinylated peptide, 200 ng/well Streptavidin-xIAPC conjugate (Prozyme) and 6-10 ng/well Eu W1024-antiGST (Perkin Elmer). DMSO content of the samples was kept at 1%.
After generation of the Tris-based buffer system, the potentially RORγ modulating ligands were diluted. […] The LANCE signal was detected by a Perkin Elmer EnVision™ Multilabel Counter. The results were visualized by plotting the ratio between the emitted light at 665 nm and 615 nm. […] Ligands that promote the complex formation induce a concentration-dependent increase in time-resolved fluorescent signal.
The normalised TR-FRET assay values, using the following equation: 1000*665 nm measurement value/615 nm measurement value, were transferred to the program GraphPad Prism to generate graphs and dose response curves using the following equation:
Equation: Sigmoidal Dose-Response (Variable Slope) Y=Bottom+(Top-Bottom)/(1+10^((LogEC50−X)*HillSlope)) X is the logarithm of the concentration. Y is the response. Y starts at Bottom and goes to Top with a sigmoidal shape.
This is identical to the “four parameter logistic equation”. The IC50 values are calculated using this equation.

[1] = read-out: RORγ activity in the TR-FRET Activity Assay (IC50 FRET), Group

IC50 [1] [nM]	SMILES	IC50 [nM]
500 to 2000	Cc1c(S(N)(=O)=O)cc(-c2cc3c(c(C(C)(C)C)c2)OCCC3=O)n1CC1CCCCC1 [12/28]	
< 500	Cc1c(S(N)(=O)=O)cc(-c2ccc(S(=O)(=O)NC(C)(C)C)c(C(F)F)c2)n1CC1CCCCC1 [12/29]	
	Cc1c(S(N)(=O)=O)cc(-c2cn(S(=O)(=O)NC(C)(C)C)c3ccccc23)n1CC1CCCCC1 [1/32]	> 2000
> 2000	Cc1c(S(N)(=O)=O)cc(-c2cc(C(C)(C)C)cc(C(C)(C)CNC(=O)C3CC3)c2)n1CC1CCCCC1 [49/2]	
> 2000	CCC(=O)NCC(C)(C)c1cc(-c2cc(S(N)(=O)=O)c(C)n2CC2CCCCC2)cc(C(C)(C)C)c1 [49/1]	
	Cc1c(S(N)(=O)=O)cc(-c2cc(C(C)(C)C)cc(C(C)(C)CO)c2)n1CC1CCCCC1 [Example 50]	> 2000
< 500	Cc1c(S(N)(=O)=O)cc(-c2cc(C(C)(C)C)cc(C(C)(C)C)c2)n1CCC1CCCC1 [1/22]	
	CCNS(=O)(=O)c1cc(-c2cc(C(C)(C)C)cc(C(C)(C)C)c2)n(CC2CCCCC2)c1C [Example 2, 1-(Cyclohexylmethyl)-5-(3,5-di-tert-butylphenyl)-N-ethyl-2-methyl-1H-pyrrole-3-sulfonamide]	< 500
	Cc1c(S(=O)(=O)NCC(C)(C)O)cc(-c2cc(C(C)(C)C)cc(C(C)(C)C)c2)n1CC1CCCCC1 [2/5]	< 500
> 2000	Cc1c(S(=O)(=O)NCC(=O)O)cc(-c2cc(C(C)(C)C)cc(C(C)(C)C)c2)n1CC1CCCCC1 [Example 43, 2(1-(Cyclohexylmethyl)-5(3,5-di-tert-butylphenyl)-2-methyl-1H-pyrrole-3-sulfonamido)acetic acid]	
500 to 2000	Cc1c(S(N)(=O)=O)cc(-c2cc(C(C)(C)C)cc(C(C)(C)C)c2)n1CC1CCC1 [1/39]	
< 500	Cc1c(S(=O)(=O)NCCC(N)=O)cc(-c2cc(C(C)(C)C)cc(C(C)(C)C)c2)n1CC1CCCCC1 [Example 40, 3-(1-(cyclohexylmethyl)-5-(3,5-di-tert-butylphenyl)-2-methyl-1H-pyrrole-3-sulfonamido)propanamide]	
> 2000	COc1cc(-c2cc(S(N)(=O)=O)c(C)n2CC2CCCCC2)cc(C(C)(C)C)c1 [16/1]	
500 to 2000	COCCOc1c(C(C)(C)C)cc(-c2cc(S(N)(=O)=O)c(C)n2CC2CCCCC2)cc1C(C)(C)C [16/11]	
> 2000	Cn1c(S(N)(=O)=O)cc(-c2cc(C(C)(C)C)cc(C(C)(C)C)c2)c1CC1CCCCC1 [Example 25, 5-(Cyclohexylmethyl)-4-(3,5-di-tert-butylphenyl)-1-methyl-1H-pyrrole-2-sulfonamide]	
500 to 2000	Cc1c(S(N)(=O)=O)cc(-c2cc(C(=O)NC(C)(C)C)nc(C(C)(C)C)c2)n1CC1CCCCC1 [Example 20, N,6-Di-tert-butyl-4-(1-(cyclohexylmethyl)-5-methyl-4-sulfamoyl-1H-pyrrol-2-yl)picolinamide]	
< 500	Cc1c(S(=O)(=O)NCCN2CCOCC2)cc(-c2cc(C(C)(C)C)cc(C(C)(C)C)c2)n1CC1CCCCC1 [2/6]	
500 to 2000	Cc1c(S(N)(=O)=O)cc(-c2cc(C(=O)NC(C)(C)C)cc(C(F)(F)F)c2)n1CC1CCCCC1 [13/13]	
< 500	Cc1c(S(N)(=O)=O)cc(-c2cc(OCC(F)(F)F)nc(C(C)(C)C)c2)n1CC1CCCCC1 [12/12]	
500 to 2000	Cc1c(S(N)(=O)=O)cc(-c2cn(S(=O)(=O)N3CCCCC3)c3ccccc23)n1CC1CCCCC1 [1/33]	
< 500	Cc1c(S(=O)(=O)NCCCCCO)cc(-c2cc(C(C)(C)C)cc(C(C)(C)C)c2)n1CC1CCCCC1 [Example 5]	

IC50 [1] [nM]	SMILES	IC50 [nM]
< 500	Cc1c(S(N)(=O)=O)cc(-c2ccc(S(=O)(=O)NC(C)(C)C)c(C3(C)CC3)c2)n1CC1CCCCC1 [22/18]	
500 to 2000	CC(C)(C)c1cc(-c2c(Cl)c(S(N)(=O)=O)c(Cl)n2CC2CCCCC2)cc(C(C)(C)C)c1 [Example 30, 2,4-Dichloro-1-(cyclohexylmethyl)-5-(3,5-di-tert-butylphenyl)-1H-pyrrole-3-sulfonamide]	
< 500	Cc1c(S(N)(=O)=O)cc(-c2cc(C(C)(C)C)cc(C(C)(F)F)c2)n1CC1CCCCC1 [Example 7, 5-(3-(tert-Butyl)-5-(1,1-difluoroethyl)phenyl)-1-(cyclohexylmethyl)-2-methyl-1H-pyrrole-3-sulfonamide]	
500 to 2000	CCOc1cc(-c2cc(S(N)(=O)=O)c(C)n2CC2CCCCC2)cc(C(C)(C)C)n1 [17/2]	
< 500	Cc1c(S(=O)(=O)NCCO)cc(-c2cc(C(C)(C)C)cc(C(C)(C)C)c2)n1CC1CCCCC1 [2/2]	
> 2000	Cc1c(S(N)(=O)=O)cc(-c2cc(C(C)(C)C)c(C(=O)O)c(C(C)(C)C)c2)n1CC1CCCCC1 [Example 8, 2,6-Di-tert-butyl-4-(1-(cyclohexylmethyl)-5-methyl-4-sulfamoyl-1H-pyrrol-2-yl)benzoic acid]	
> 2000	Cc1c(S(N)(=O)=O)cc(-c2cc(C(C)C)c3c(c2)C(C)(C)NS3(=O)=O)n1CC1CCCCC1 [12/17]	
	COCCNS(=O)(=O)c1cc(-c2cc(C(C)(C)C)cc(C(C)(C)C)c2)n(CC2CCCCC2)c1C [Example 2/1]	< 500
> 2000	Cc1c(S(N)(=O)=O)cc(-c2cc(C(=O)N(C)C(C)(C)C)cc(C(F)(F)F)c2)n1CC1CCCCC1 [13/14]	
> 2000	CC(=O)c1cc(-c2cc(S(N)(=O)=O)c(C)n2CC2CCCCC2)cc(C(C)(C)C)c1 [12/27]	
< 500	Cc1c(S(N)(=O)=O)cc(-c2cn(S(=O)(=O)N(C)C(C)(C)C)c3ccccc23)n1CC1CCCCC1 [1/31]	
< 500	Cc1c(S(=O)(=O)N2CCOCC2)cc(-c2cc(C(C)(C)C)cc(C(C)(C)C)c2)n1CC1CCCCC1 [Example 44, 4-((1-(Cyclohexylmethyl)-5-(3,5-di-tert-butylphenyl)-2-methyl-1H-pyrrol-3-yl)sulfonyl)morpholine]	
< 500	Cc1ccc2c(-c3cc(S(N)(=O)=O)c(C)n3CC3CCCCC3)cn(S(=O)(=O)N3CCCCC3)c2c1 [1/35]	
> 2000	Cc1c(S(N)(=O)=O)cc(-c2cc(C(C)(C)C)cc(C(C)(C)CF)c2)n1CC1CCCCC1 [12/26]	
> 2000	Cc1c(S(N)(=O)=O)cc(-c2cn(S(=O)(=O)c3cccc(Cl)c3)c3ccccc23)n1CC1CCCCC1 [53/1]	
< 500	Cc1c(S(N)(=O)=O)cc(-c2cc(C(C)(C)C)nc(C(C)(C)C)c2)n1CC1CCCCC1 [Example 18, 1-(Cyclohexylmethyl)-5-(2,6-di-tert-butylpyridin-4-yl)-2-methyl-1H-pyrrole-3-sulfonamide]	
< 500	Cc1c(S(N)(=O)=O)cc(-c2cc(C(C)(C)C)c(F)c(C(C)(C)C)c2)n1CC1CCCCC1 [12/39]	
> 2000	Cc1c(S(N)(=O)=O)cc(-c2cc(C(C)(C)C)cc(C(C)(C)C(=O)O)c2)n1CC1CCCCC1 [Example 46, 2-(3-(tert-Butyl)-5-(1-(cyclohexylmethyl)-5-methyl-4-sulfamoyl-1H-pyrrol-2-yl)phenyl)-2-methylpropanoic acid]	
	Cc1c(S(N)(=O)=O)cc(-c2cc(C(C)(C)C)cc(S(=O)(=O)N(C)C(C)(C)C)c2)n1CC1CCCCC1 [22/4]	500 to 2000
500 to 2000	Cc1c(S(N)(=O)=O)cc(-c2cn(S(=O)(=O)c3ccccc3)c3ccccc23)n1CC1CCCCC1 [1/19]	

SMILES	IC50 [1] [nM]	IC50 [nM]
Cc1c(S(N)(=O)=O)cc(-c2cc(OCC(C)C)nc(C(C)(C)C)c2)n1CC1CCCCC1 [Example 17, 5-(2-tert-Butyl-6-isobutoxypyridin-4-yl)-1-(cyclohexylmethyl)-2-methyl-1H-pyrrole-3-sulfonamide]	< 500	
